Laboratory results: patent US9605064B2, “Methods and compositions for treatment of skin disorders” (AbbVie Biotechnology Ltd, priority 2006, dated 2017)
Marks after values point to notes of the source that are not given here.

Assays:
[1] = tested on: patients with moderate to severe chronic plaque psoriasis; test: DLQI, Phase II 12-week placebo-controlled trial with 48-week extension; format: in vivo, human; details: for Mean change in DLQI from baseline at Week 60: observed values; for DLQI = 0 / DLQI = 1 / DLQI = 2 / DLQI ≧ 3 / patients who achieved DLQI=0: pooled arms
Text: The DLQI is a validated instrument used to measure disease impact on daily function.
The DLQI is a validated instrument used to assess dermatologic-related functional limitations, and was used as the patient related outcomes (PRO) measure. The DLQI consists of ten items and an overall scoring range of 0-30, where higher scores represent greater quality of life impairment and lower scores represent lower quality of life impairment. The DLQI also includes well-established properties of reliability and validity for the DLQI total score in a dermatology setting and measures six subcategories: symptoms and feelings, daily activities, leisure, work/school, personal relationships, and treatment.
Patients who discontinued before the time point were not included in this analysis. Ranges of DLQI scores were evaluated for their correspondence to categories of disease impact and are described below in Table 1.
PROs were assessed using the DLQI. The DLQI is a validated instrument used to assess dermatologic-related functional limitations.

[2] = tested on: patients with moderate to severe chronic plaque psoriasis; details: in vivo
[3] = tested on: patients with moderate to severe chronic plaque psoriasis; test: Adverse events, open-label extension of CHAMPION
[4] = tested on: patients with moderate to severe plaque psoriasis; test: Adverse events and laboratory abnormalities, 12-week open-label weekly therapy then randomized eow or withdrawal
[5] = PASI 75-99 responders who had DLQI>0 at Week 60
[6] = PASI improvement 50-74 (n = 18), Week 60
[7] = PASI improvement 75-99 (n = 54), Week 60
[8] = PASI improvement 100 (n = 29), Week 60
[9] = PASI improvement <50 (n = 5), Week 60
[10] = patients with PASI 75-99, Week 60
[11] = patients with PASI 100, Week 60
[12] = through Week 24 of the OLE (N = 95), AEs occurring ≧5% of patients
[13] = through Week 24 of the OLE (N = 95), MTX patients transitioned to adalimumab 40 mg eow
[14] = Double-blind period Weeks 12-24, 40 mg eow (N = 68)
[15] = Open-label period Weeks 0-11, 40 mg weekly (N = 148)

Substance: Adalimumab: a human anti-TNF mAb, described in U.S. Pat. No. 6,090,382 as D2E7 (HUMIRA, Abbott Laboratories)
- patients with change from large/extremely large DLQI impact at baseline to no/small impact ([1]; 40 mg eow, week 12): 85%
- patients with change from large/extremely large DLQI impact at baseline to no/small impact ([1]; 40 mg eow, week 24): 85%
- patients with change from large/extremely large DLQI impact at baseline to no/small impact ([1]; 40 mg eow, week 36): 83%
- patients with change from large/extremely large DLQI impact at baseline to no/small impact ([1]; 40 mg eow, week 60): 83%
- mean change in DLQI ([1]; 40 mg weekly, Week 12): −11.5*
- patients with change from large/extremely large DLQI impact at baseline to no/small impact ([1]; 40 mg weekly, Week 12): 86%
- patients with change from large/extremely large DLQI impact at baseline to no/small impact ([1]; 40 mg weekly, week 24): 88%
- patients with change from large/extremely large DLQI impact at baseline to no/small impact ([1]; 40 mg weekly, week 36): 91%
- patients with change from large/extremely large DLQI impact at baseline to no/small impact ([1]; 40 mg weekly, week 60): 100%
- Mean change in DLQI from baseline at Week 60 ([1]; PASI 50-74): −8.8
- Mean change in DLQI from baseline at Week 60 ([1]; PASI 75-99): −11.5
- embarrassment/self-consciousness because of skin condition [1, 5]: approximately 20%
- persistent symptoms of itching, soreness, pain, or stinging of the skin [1, 5]: approximately 50%
- Mean change in DLQI from baseline at Week 60 ([1]; PASI 100): −11.1
- Mean change in DLQI from baseline at Week 60 ([1]; PASI <50): −6.0
- DLQI = 0 [1, 6]: 5 (28) n (%)
- DLQI = 1 [1, 6]: 3 (17) n (%)
- DLQI = 2 [1, 6]: 3 (17) n (%)
- DLQI ≧ 3 [1, 6]: 7 (39) n (%)
- DLQI = 0 [1, 7]: 20 (37) n (%)
- DLQI = 1 [1, 7]: 19 (35) n (%)
- DLQI = 2 [1, 7]: 4 (7) n (%)
- DLQI ≧ 3 [1, 7]: 11 (20) n (%)
- DLQI = 0 [1, 8]: 23 (79) n (%)
- DLQI = 1 [1, 8]: 3 (10) n (%)
- DLQI = 2 [1, 8]: 3 (10) n (%)
- DLQI ≧ 3 [1, 8]: 0 (0) n (%)
- DLQI = 0 [1, 9]: 0 (0) n (%)
- DLQI = 1 [1, 9]: 1 (20.0) n (%)
- DLQI = 2 [1, 9]: 2 (40) n (%)
- DLQI ≧ 3 [1, 9]: 2 (40) n (%)
- mean change in DLQI ([1]; adalimumab-treated patients): ≥ 10 points
- DLQI mean change from baseline ([1]; baseline PASI ≧10 and DLQI >10, 40 mg eow, Week 12): −15
- DLQI mean change from baseline ([1]; baseline PASI ≧10 and DLQI >10, 40 mg eow, Week 24): −14
- DLQI mean change from baseline ([1]; baseline PASI ≧10 and DLQI >10, 40 mg eow, Week 36): −15
- DLQI mean change from baseline ([1]; baseline PASI ≧10 and DLQI >10, 40 mg eow, Week 60): −15
- DLQI mean change from baseline ([1]; baseline PASI ≧10 and DLQI >10, 40 mg weekly, Week 12): −16
- DLQI mean change from baseline ([1]; baseline PASI ≧10 and DLQI >10, 40 mg weekly, Week 24): −17
- DLQI mean change from baseline ([1]; baseline PASI ≧10 and DLQI >10, 40 mg weekly, Week 36): −18
- DLQI mean change from baseline ([1]; baseline PASI ≧10 and DLQI >10, 40 mg weekly, Week 60): −17
- DLQI mean change from baseline ([1]; baseline PASI ≧10 and DLQI >10, placebo/adalimumab 40 mg eow, Week 24): −12
- DLQI mean change from baseline ([1]; baseline PASI ≧10 and DLQI >10, placebo/adalimumab 40 mg eow, Week 36): −14
- DLQI mean change from baseline ([1]; baseline PASI ≧10 and DLQI >10, placebo/adalimumab 40 mg eow, Week 60): −12
- mean DLQI score ([1]; baseline PASI ≧10 and DLQI >10, weekly, Week 60): 0.7
- Mean improvement in DLQI ([1]; from dosage escalation to Week 60, 18 of the 30 patients who switched to weekly dosing): 2.1
- patients who achieved DLQI=0 ([1]; of the total 106 patients receiving adalimumab at Week 60): 48 patients
- patients who achieved DLQI=0 ([1]; patients receiving adalimumab at Week 60): approximately 45%
- patients who achieved a DLQI=0 ([1]; patients with 50-74, Week 60): 28%
- mean change in DLQI from baseline ([1]; patients with PASI 50-74, Week 60): −8
- mean change in DLQI from baseline [1, 10]: −11.5
- patients who achieved a DLQI=0 [1, 10]: 37%
- mean change in DLQI from baseline [1, 11]: −11.1
- patients who achieved a DLQI=0 [1, 11]: 79%
- mean change in DLQI from baseline ([1]; patients with PASI<50, Week 60): −6
- patients with change from large/extremely large DLQI impact at baseline to no/small impact ([1]; placebo patients switched to adalimumab at week 12, week 24): 67%
- patients with change from large/extremely large DLQI impact at baseline to no/small impact ([1]; placebo patients switched to adalimumab at week 12, week 36): 79%
- patients with change from large/extremely large DLQI impact at baseline to no/small impact ([1]; placebo patients switched to adalimumab at week 12, week 60): 71%
- patients with change from large/extremely large DLQI impact at baseline to no/small impact ([1]; randomized to adalimumab, week 12): 85%
- serious infections [2]: no patients experienced serious infections
- rebound ([3]; first 24 weeks of the OLE): No cases of rebound were observed
- Injection-site reaction, Percentage of Patients [3, 12]: 5%
- Nasopharyngitis, Percentage of Patients [3, 12]: 6%
- AEs leading to withdrawal, Percentage of Patients [3, 13]: 1%
- Any AE, Percentage of Patients [3, 13]: 47%
- Any malignancy, Percentage of Patients [3, 13]: 0%
- Rebound psoriasis, Percentage of Patients [3, 13]: 0%
- Serious AE, Percentage of Patients [3, 13]: 5%
- patients with serious adverse events ([4]; 24-week trial): Four patients
- tuberculosis or other opportunistic infections, lymphoma, melanoma, other malignancies, demyelinating disorders, lupus-like syndromes, congestive heart failure ([4]; 24-week trial): No patients developed
- Any AE [4, 14]: 46 (67.6) n (%)
- Any AEs leading to discontinuation [4, 14]: 2 (2.9) n (%)
- Any SAE [4, 14]: 2 (2.9) n (%)
- Arthralgia [4, 14]: 5 (7.4) n (%)
- Headache [4, 14]: 1 (1.5) n (%)
- Injection site reaction [4, 14]: 4 (5.9) n (%)
- Nasopharyngitis [4, 14]: 3 (4.4) n (%)
- Any AE [4, 15]: 105 (70.9) n (%)
- Any AEs leading to discontinuation [4, 15]: 1 (0.7) n (%)
- Any SAE [4, 15]: 2 (1.4) n (%)
- Arthralgia [4, 15]: 4 (2.7) n (%)
- Headache [4, 15]: 11 (7.4) n (%)
- Injection site reaction [4, 15]: 17 (11.5) n (%)
- Nasopharyngitis [4, 15]: 11 (7.4) n (%)
- ALT elevation greater than 2.5 times the upper limit of normal ([4]; Week 12): No patients
- ALT elevation greater than 2.5 times the upper limit of normal ([4]; adalimumab eow group, Week 24): One patient
- arthralgias ([4]; adalimumab eow group, Weeks 12-24): 7.4%
- patients who withdrew because of an adverse event ([4]; of the 148 patients who received at least one dose): three
- rebound (pre-specified definition) ([4]; three patients classified by investigators as rebounders): None of the three patients met the study's pre-specified definition of rebound
